Data published in patent publication US9581606B2, “Method for determining depression, kit for analyzing serotonin transporter, and kit for analyzing ubiquitinated serotonin transporter in blood” (MEIJO UNIVERSITY, priority 2011, dated 2017).
Where a SMILES comes first, the peptide text is derived from it. The star is where a group is joined. Cbz = O=C(OCc1ccccc1)*

What was measured:
[1] = test system: ubiquitinated serotonin transporter protein; assay: Expression amount of ubiquitinated serotonin transporter protein in established lymphocytes (UBIQAPTURE-Q kit, Western blotting); format: cell-based, human; conditions: MG132 20 μM, 4 hours
Experimental: The mouse brain sample, cells, and established lymphocytes were subjected to ultrasonic fragmentation at 4° C. using a sonicator in a lysis buffer [20 mM Tris-HCl, 150 mM NaCl, 50 mM NaF, 1 mM EDTA, 1 mM EGTA, 1% (w/v) TRITONX-100, 1 mM sodium orthovanadate, 0.1% (w/v) SDS, 1% (w/v) sodium deoxycholate, 0.5 mM dithiothreitol, 10 mM sodium pyrophosphate decahydrate, 1 mM phenylmethylsulfonyl fluoride, 10 μg/mL aprotinin, 10 μg/mL leupeptin, and 10 μg/mL pepstatin (pH 7.4)], and thus a homogenate was obtained through these operations. The homogenate was centrifuged for 20 minutes at 4° C. and 13000×g, and the supernatant thus obtained was used. A sample buffer [0.125 M Tris-HCl (pH 6.8), 2% (w/v) SDS, 5% (w/v) glycerol, 0.002% (w/v) bromophenol blue, and 5% (w/v) 2-mercaptoethanol] was added to each of the supernatant samples whose protein content had been adjusted, and then boiled at 95° C. for 5 minutes. Thereafter, the protein (20 μg) was subjected to electrophoresis using a 10% polyacrylamide gel, the protein was transferred to a polyvinylidene difluoride (PVDF) membrane (Millipore Corporation, Billerica, Mass., USA), and blocked using Detector Block Kit (Kirkegaard and Perry Laboratories, Gaithersburg, Md., USA). […] The luminescence due to the immune complex was detected using ECL (GE Healthcare Biosciences, Piscataway, N.J., USA), which is a Western blotting detection reagent, and the expression amount was calculated by the image analysis of the luminescence intensity. […]
According to the procedure in the above-described A (5), the ubiquitinated protein was isolated from the homogenate homogenized with a lysis buffer using UBIQAPTURE-Q kit (Enzo Life Sciences International, Inc, Plymouth Meeting, Pa.), and the ubiquitinated serotonin transporter protein was detected by Western blotting under the same conditions as in the A (5). […]

[2] = test system: serotonin transporter protein; assay: Expression amount of serotonin transporter protein in established lymphocytes (Western blotting); format: cell-based, human; conditions: for expression amount of the serotonin transporter: MG132 20 μM, 4 hours, control = healthy subjects without MG132
Experimental: The mouse brain sample, cells, and established lymphocytes were subjected to ultrasonic fragmentation at 4° C. using a sonicator in a lysis buffer [20 mM Tris-HCl, 150 mM NaCl, 50 mM NaF, 1 mM EDTA, 1 mM EGTA, 1% (w/v) TRITONX-100, 1 mM sodium orthovanadate, 0.1% (w/v) SDS, 1% (w/v) sodium deoxycholate, 0.5 mM dithiothreitol, 10 mM sodium pyrophosphate decahydrate, 1 mM phenylmethylsulfonyl fluoride, 10 μg/mL aprotinin, 10 μg/mL leupeptin, and 10 μg/mL pepstatin (pH 7.4)], and thus a homogenate was obtained through these operations. The homogenate was centrifuged for 20 minutes at 4° C. and 13000×g, and the supernatant thus obtained was used. A sample buffer [0.125 M Tris-HCl (pH 6.8), 2% (w/v) SDS, 5% (w/v) glycerol, 0.002% (w/v) bromophenol blue, and 5% (w/v) 2-mercaptoethanol] was added to each of the supernatant samples whose protein content had been adjusted, and then boiled at 95° C. for 5 minutes. Thereafter, the protein (20 μg) was subjected to electrophoresis using a 10% polyacrylamide gel, the protein was transferred to a polyvinylidene difluoride (PVDF) membrane (Millipore Corporation, Billerica, Mass., USA), and blocked using Detector Block Kit (Kirkegaard and Perry Laboratories, Gaithersburg, Md., USA). A primary antibody (anti-SERT) (Millipore, Billerica, Mass.) against the serotonin transporter protein was added to the PVDF membrane, allowed to stand overnight in a refrigerator (4° C.), and then a secondary antibody (HRP-conjugated anti-rabbit IgG) (Kirkegaard and Perry Laboratories) was added, and allowed to stand at room temperature for 3 hours. The luminescence due to the immune complex was detected using ECL (GE Healthcare Biosciences, Piscataway, N.J., USA), which is a Western blotting detection reagent, and the expression amount was calculated by the image analysis of the luminescence intensity.
Subsequently, in order to determine the expression amount of the β-actin protein as the endogenous reference material, stripping was carried out, a primary antibody (anti-β-actin) (Santa Cruz Biotechnology, Santa Cruz, Calif.) was added, and incubated. In the result thus obtained, the band of the serotonin transporter protein was corrected by the band of the β actin protein, and the expression amount to the control group was expressed in terms of the percentage (%).
Each of the blood samples aseptically collected from the above objects was diluted two folds with a sterile normal saline solution. Subsequently, the diluted blood sample was quietly poured into the tube containing 3.5 ml of the Ficoll-Paque liquid (General Electric Company, Uppsala, Sweden), and centrifuged at 600×g for 30 minutes. […]

[3] = test system: MAGE-D1 gene-deficient mouse; assay: Forced swimming test, model mouse; format: in vivo; conditions: for effect on the increase of the immobility time: forced swimming test (FIG. 1)
Description: The targeting vector (Stratagene: pBlueScript), which allow homologous recombination between the MAGE-D1 gene (Gene bank: NM_019791.2) exon and the drug (G418)-resistant gene (GenBank: U00004.1), was electroporated into the embryonic stem (ES) cells (acquired from Research Institute of National Center for Geriatrics and Gerontology) derived from the 129Svj mouse, and the drug-resistant colony was selected. The homologous recombinant was identified from the selected resistant colony by Southern blotting. The desired homologous recombinant ES cell clone thus identified was injected into the blastocyst stage embryo of the C57BL/6J mouse, thereby making a chimera mouse. The chimera mouse was mated with the wild type C57BL/6J mouse, thereby making a hetero MAGE-D1 gene-deficient mouse of F1 generation. The wild type C57BL/6J was mated with the hetero MAGE-D1 gene-deficient mouse up to the F10 generation, and the mouse having 99.9 percent (as a result of one mating with the C57BL/6J mouse, about half the genes of the newborn mouse are derived from the C57BL/6J mouse used for mating; in other words, as a result of the n times of mating with the C57BL/6J mouse, about [1−(1/2)^n+1]×100% genes are likely derived from the C57BL/6J mouse) C57BL/6J genetic background was used. The mouse having the genetic background was used as the MAGE-D1 gene-deficient mouse (hereinafter may be referred to as model mouse) in the following test.
(§1) Experimental equipment and procedure: the experimental equipment was a water tank (diameter 15 cm×height 20 cm) containing water (water temperature about 22° C.×depth 13 cm). The wild type C57BL/6J mouse as the control or the model mouse was placed in the water tank, and immediately after that, the immobility time was measured using Scanet MV-10AQ (Brainscience Idea, Co., Ltd. Osaka, Japan) for 10 minutes at intervals of 1 minute.
(§2) 5 or 10 mg/kg sertraline (Pfizer, Groton, CT) suspended in 0.3% carboxymethyl cellulose sodium, and 10 or 20 mg/kg imipramine (Sigma, St. Louis, Mo.) dissolved in a normal saline solution were intraperitoneally administered 30 minutes before the main test. As the control, the solvent was intraperitoneally administered.

[4] = test system: wild type C57BL/6J mouse; assay: Forced swimming test, control mouse; format: in vivo
Experimental: as §1, §2

[5] = established lymphocytes from patients with depression to whom the antidepressant was not effective
[6] = 10 mg/kg intraperitoneally 30 minutes before test
[7] = 20 mg/kg intraperitoneally 30 minutes before test
[8] = 5 mg/kg intraperitoneally 30 minutes before test

CC(C)C[C@@H](C=O)NC(=O)[C@H](CC(C)C)NC(=O)[C@H](CC(C)C)NC(=O)OCc1ccccc1 [MG132] (Cbz-Leu-Leu-Leu-aldehyde)
expression amount of the ubiquitinated serotonin transporter ([1]; established lymphocytes from healthy subjects, control = healthy subjects without MG132): 130.6% | expression amount of the ubiquitinated serotonin transporter ([1]; established lymphocytes from patients with depression to whom fluvoxamine was effective): 103.4% | expression amount of the ubiquitinated serotonin transporter [1, 5]: 88.5% | expression amount of the serotonin transporter ([2]; established lymphocytes from healthy subjects): 173.8% | expression amount of the serotonin transporter ([2]; established lymphocytes from patients with depression to whom the antidepressant was effective): 141.9% | expression amount of the serotonin transporter [2, 5]: 143.6% | effect of addition on the expression amount of the serotonin transporter ([2]; established lymphocytes of the patients with depression, regardless of effect of the antidepressant): did not significantly increase

CN(C)CCCN1c2ccccc2CCc2ccccc21 [imipramine]
average of the immobility time ratio [3, 6]: 60.2% | average of the immobility time ratio [3, 7]: 40.6% | effect on the increase of the immobility time [3]: significantly and dose-dependently decreased | average of the immobility time ratio [4, 6]: 47.7% | average of the immobility time ratio [4, 7]: 39.0%

CN[C@H]1CC[C@@H](c2ccc(Cl)c(Cl)c2)c2ccccc21 [sertraline]
average of the immobility time ratio [3, 8]: 56.3% | average of the immobility time ratio [3, 6]: 45.7% | effect on the increase of the immobility time [3]: significantly and dose-dependently decreased | average of the immobility time ratio [4, 8]: 37.4% | average of the immobility time ratio [4, 6]: 37.7%
